Results taken from US20040192720A1, “Novel heteroaryl alkylamide derivatives useful as bradykinin receptor modulators” (priority 2003, published 2004).

Legend:
[1] = biological target: T1, human B2 bradykinin receptors (Homo sapiens, UniProt P30411); assay: Bradykinin B2 (BK2) Receptor Binding Assay; details: CHO-K1 membranes transfected with human B2 receptor, ~0.25 nM [3H]NPC17731, 60 min 25° C.
T1 construct: purchased Receptor Biology, Inc. (Baltimore, Md.); host or cells: CHO-K1 cells transfected with human B2 receptor (membranes)
T1 sequence (P30411 1-391): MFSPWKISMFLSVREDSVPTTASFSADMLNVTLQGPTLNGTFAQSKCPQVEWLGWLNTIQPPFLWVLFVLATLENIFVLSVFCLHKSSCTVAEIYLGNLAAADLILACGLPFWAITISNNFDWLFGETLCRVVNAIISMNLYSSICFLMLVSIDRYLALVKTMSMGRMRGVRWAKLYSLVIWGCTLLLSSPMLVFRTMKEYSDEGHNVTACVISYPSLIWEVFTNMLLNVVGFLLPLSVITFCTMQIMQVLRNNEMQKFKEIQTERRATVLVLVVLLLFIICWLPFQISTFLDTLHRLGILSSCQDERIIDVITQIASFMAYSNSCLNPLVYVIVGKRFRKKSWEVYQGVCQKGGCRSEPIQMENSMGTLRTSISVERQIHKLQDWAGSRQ
Procedure: Bradykinin B2 (BK2) Receptor Binding Assay
Cell membranes of CHO-K1 cells transfected with human B2 bradykinin receptors (CH)-hB2) were purchased from Receptor Biology, Inc. (Baltimore, Md.). 5.54 mg/mL of membrane protein suspended in 10 mM TRIS-HC pH 7.2, 2 mM EDTA, 10% sucrose.
Incubation for 60 min at 25° C. was performed in a total volume of 1 mL and contained, unless stated differently, 50 mM HEPES, pH 7.2, 5 mM MgCl2, 0.02 mg/mL 1.10-phenathroline (Sigma, P-9375), 0.25 mg/mL pefebloc SC (Boerhringer, 1429876), 30 μg/mL membrane protein and ˜0.25 nM [^3HNPC17731 (NEN, Boston). Samples were harvested on a Brandel Cell Harvester on to Wallac filtermat B sheets (96 sample format), and washed three times with 2 mL cold HEPES-buffer (10 mM, pH 7.5), and dried in a microwave oven. To each sample area 2×40 μL of Betaplate Scint scintillation fluid (LKB) was added and the radioactivity quantified on a LKB (Wallac) 1205 BetaPlate liquid scintillation counter.
The data were used to calculate either the % inhibition compared to control binding (when only a single concentration of test compound was evaluated) or a Ki value (when a range of concentrations were tested). Background was subtracted from mean cpm values and % inhibition was calculated as: [(total dpm-tpst compound dpm)/(total dpm-nonspecific dpm)]×100. Kd and Ki values were calculated using GraphPad PRISM data analysis program.

[2] = biological target: T2, human B2 bradykinin receptors (CHO-hB2 cell membranes) (Homo sapiens, UniProt P30411); assay: [35S]GTPγS Binding Assay in CHO-hB2 Cell Membranes; type: biochemical; details: bradykinin-stimulated [35S]GTPγS binding; for Functional Activity (% Basal): number in parentheses, concentration not given
T2 construct: purchased Receptor Biology, Inc. (Baltimore, Md.); host or cells: CHO-hB2 cells (membranes)
T2 sequence (P30411 1-391): T1 sequence (P30411 1-391)
Procedure: [^35S]GTPγS Binding Assay in CHO-hB2Cell Membranes
CHO-hB2 cell membranes were purchased from Receptor Biology, Inc. (Baltimore, Md.). 10 mg/mL of membrane protein was suspended in 10 mM TRIS-HC pH 7.2, 2 mM EDTA, 10% sucrose.
Membranes were added into 15 mL ice cold binding assay buffer. The assay buffer contained 50 mM HEPES, pH 7.6, 5 mM MgCl2, 100 mM NaCl, 1 mM DTT and 1 mM EDTA. The membrane suspension was homogenized twice with a Polytron and centrifuged at 3000 rpm for 10 min. The supernatant was then centrifuged at 18,000 rpm for 20 min. The pellet was saved in a tube and resuspended.
The pellet membranes (40 μg/mL) were preincubated with SPA (scintillation proximity assay) beads (20 mg/mL) at 25 C. ° for 45 min in the assay buffer. The SPA beads (5 mg/mL) coupled with membranes (10 μg/mL) were then incubated with 0.5 nM [^35S]GTPγS in the same HEPES buffer containing 50 μM GDP in total volume of 200 μL. Bradykinin was used to stimulate [^35S]GTPγS binding. Varying concentrations of drugs were incubated with bradykinin to inhibit bradykinin-stimulated [^35S]GTPγS binding. The basal binding was tested in the absence of bradykinin and no specific binding was tested in the present 10 μM unlabeled GTPγS. The radioactivity was quantified on a Packard Top Count, and calculated.
% of Basal=(stimulated binding−non specific binding)/(basal binding−non specific binding)×100.

Compound | Ki [1] | Functional Activity (word result) [2] | Functional Activity (% Basal) [2]
N-[2,4-Dimethyl-3-(2-methyl-quinolin-8-yloxymethyl)-phenyl]-3-[5-(4-methoxy-benzoyl)-1-methyl-1H-pyrrol-2-yl]-N-methyl-propionamide [Compound 106] | 0.375 µM | – | –
Cc1ccc2cccc(OCc3c(Cl)ccc(N(C)C(=O)Cc4ccc(C(=O)c5ccc([N+](=O)[O-])c(C)c5)n4C)c3Cl)c2n1 [Compound 65, N-[2,4-Dichloro-3-(2-methyl-quinolin-8-yloxymethyl)-phenyl]-N-methyl-2-[1-methyl-5-(3-methyl-4-nitro-benzoyl)-1H-pyrrol-2-yl]-acetamide] | – | Antagonist | –
Cc1ccc2cccc(OCc3c(Cl)ccc(N(C)C(=O)Cc4ccc(C(=O)CN5CCC(Cc6ccccc6)CC5)n4C)c3Cl)c2n1 [Compound 59] | – | No effect | 1 % Basal
CC(=O)Nc1ccc(C=CC(=O)NC[C@H]2CCCN2c2ccc(C)c(COc3cccc4ccc(C)nc34)c2C)cn1 [Compound 112, 3-(6-Acetylamino-pyridin-3-yl)-N-{1-[2,4-dimethyl-3-(2-methyl-quinolin-8-yloxymethyl)-phenyl]-pyrrolidin-2-(R)-ylmethyl}-acrylamide.] | – | Antagonist | 59 % Basal
COc1ccc(C(=O)c2ccc(CC(=O)N(C)c3ccc(Cl)c(COc4cccc5ccc(C)nc45)c3Cl)n2C)cc1 [Compound 68] | – | Weak antagonist | 4 % Basal
Cc1ccc2cccc(OCc3c(Cl)ccc(N(C)C(=O)Cc4ccc(C(=O)c5ccc(C#N)cc5)n4CC(C)C)c3Cl)c2n1 [Compound 12] | – | No effect | 1 % Basal
Cc1ccc2cccc(OCc3c(Cl)ccc(N(C)C(=O)Cc4cc(C(=O)c5ccc(C#N)cc5)n(C)c4)c3Cl)c2n1 [Compound 4, 2-[5-(4-Cyano-benzoyl)-1-methyl-1H-pyrrol-3-yl]-N-[2,4-dichloro-3-(2-methyl-quinolin-8-yloxymethyl)-phenyl]-N-methyl-acetamide] | – | Antagonist | –
Cc1ccc2cccc(OCc3c(Cl)ccc(N(C)C(=O)Cc4ccc(C(=O)c5ccc(C(=O)N(C)C)cc5)n4C)c3Cl)c2n1 [Compound 62, 4-[5-({[2,4-Dichloro-3-(2-methyl-quinolin-8-yloxymethyl)-phenyl]-methyl-carbamoyl}-methyl)-1-methyl-1H-pyrrole-2-carbonyl]-N,N-dimethyl-benzamide] | – | Antagonist | –
Cc1ccc2cccc(OCc3c(Cl)ccc(NC(=O)Cc4ccc(C(=O)c5ccc(C#N)nc5)n4C)c3Cl)c2n1 [Compound 14] | 6.76 µM | – | –
Cc1ccc2cccc(OCc3c(Cl)ccc(NC(=O)Cc4ccc(C(=O)c5ccc(C#N)cc5)n4C)c3Cl)c2n1 [Compound 15] | 6.17 µM | Weak antagonist | –
CCN(C(=O)Cc1ccc(C(=O)c2ccc(Cl)nc2)n1C)c1ccc(Cl)c(COc2cccc3ccc(C)nc23)c1Cl [Compound 17] | – | No effect | 1 % Basal
Cc1ccc2cccc(OCc3c(Cl)ccc(N(C)C(=O)Cc4ccc(C(=O)c5ccc(C#N)cc5)n4CCC(C)C)c3Cl)c2n1 [Compound 13] | – | No effect | 1 % Basal
Cc1ccc2cccc(OCc3c(Cl)ccc(N(C)C(=O)Cc4ccc(C(=O)CN5CCC(c6ccccc6)CC5)n4C)c3Cl)c2n1 [Compound 58, N-[2,4-Dichloro-3-(2-methyl-quinolin-8-yloxymethyl)-phenyl]-N-methyl-2-{1-methyl-5-[2-(4-phenyl-piperidin-1-yl)-acetyl]-1H-pyrrol-2-yl}-acetamide] | – | No effect | 1 % Basal
Cc1ccc2cccc(OCc3c(Cl)ccc(N(C)C(=O)Cc4ccc(C(=O)c5ccc(C#N)nc5)n4C)c3Cl)c2n1 [Compound 71] | – | Antagonist | –
Cc1ccc2cccc(OCc3c(Cl)ccc(N(C)C(=O)Cc4ccc(C(=O)c5ccc(C#N)cc5)n4CC4CC4)c3Cl)c2n1 [Compound 11, 2-[5-(4-Cyano-benzoyl)-1-cyclopropylmethyl-1H-pyrrol-2-yl]-N-[2,4-dichloro-3-(2-methyl-quinolin-8-yloxymethyl)-phenyl]-N-methyl-acetamide] | – | No effect | 1 % Basal
CCN(C(=O)Cc1ccc(C(=O)c2ccc(C#N)cc2)n1C)c1ccc(C)c(COc2cccc3ccc(C)nc23)c1C [Compound 16] | – | No effect | 1 % Basal
Cc1ccc2cccc(OCc3c(Cl)ccc(N(C)C(=O)Cc4ccc(C(=O)c5cccs5)n4C)c3Cl)c2n1 [Compound 61] | – | Weak antagonist | –

Second part, the compound after the results:

Ki [1] | Functional Activity (word result) [2] | Functional Activity (% Basal) [2] | Compound
0.545 µM | – | – | Cc1ccc2cccc(OCc3c(C)ccc(N4CCC[C@H]4CNC(=O)CCc4ccc(C(=O)c5ccc(C#N)cc5)n4C)c3C)c2n1 [Compound 114]
7.9 µM | – | – | Cc1ccc2cccc(OCc3c(C)ccc(N4CCC[C@H]4CNC(=O)Cc4ccc(C(=O)c5ccc(C#N)cc5)n4C)c3C)c2n1 [Compound 113]
– | Antagonist | – | Cc1ccc2cccc(OCc3c(Cl)cc(Cl)c(N(C)C(=O)Cc4ccc(C(=O)c5ccc(Cl)nc5)n4C)c3Cl)c2n1 [Compound 117, 2-[5-(6-Chloro-pyridine-3-carbonyl)-1-methyl-1H-pyrrol-2-yl]-N-methyl-N-[2,4,6-trichloro-3-(2-methyl-quinolin-8-yloxymethyl)-phenyl]-acetamide]
– | Weak antagonist | – | Cc1ccc2cccc(OCc3c(C)ccc(N(C)C(=O)CCc4ccc(C(=O)c5cccs5)n4C)c3C)c2n1 [Compound 80]
– | Antagonist | – | CC(=O)Nc1cccc(C(=O)c2ccc(CC(=O)N(C)c3ccc(Cl)c(COc4cccc5ccc(C)nc45)c3Cl)n2C)c1 [Compound 72]
– | Antagonist | 50 % Basal | Cc1ccc2cccc(OCc3c(C)ccc(N(C)C(=O)CCc4ccc(C(=O)c5ccc(C#N)cc5)n4C)c3C)c2n1 [Compound 90]
0.09 µM | – | – | Cc1ccc2cccc(OCc3c(C)ccc(N(C)C(=O)Cc4ccc(C(=O)c5ccccc5)s4)c3C)c2n1 [Compound 108, 2-(5-Benzoyl-thiophen-2-yl)-N-[2,4-dimethyl-3-(2-methyl-quinolin-8-yloxymethyl)-phenyl]-N-methyl-acetamide]
– | Antagonist | – | CC(=O)Nc1ccc(C(=O)c2ccc(CC(=O)N(C)c3ccc(Cl)c(COc4cccc5ccc(C)nc45)c3Cl)n2C)cc1 [Compound 74, 2-[5-(4-Acetylamino-benzoyl)-1-methyl-1H-pyrrol-2-yl]-N-[2,4-dichloro-3-(2-methyl-quinolin-8-yloxymethyl)-phenyl]-N-methyl-acetamide]
– | Antagonist | – | Cc1ccc2cccc(OCc3c(C)ccc(N(C)C(=O)CCc4ccc(C(=O)c5cccnc5)n4C)c3C)c2n1 [Compound 84]
